Results reported in US6713265B1 (Synaptic Pharmaceutical Corporation, priority 1999, dated 2004).
Where two headings read alike, the source gives them in different places. One block for each molecule: values may come before it.

Legend:
[1] = tested on: human Y5 receptor; test: Radioligand binding to membranes of cells expressing cloned human Y5 receptor; conditions: BIBP 3226 at cloned human Y-type receptors
[2] = molecular target: T1, human Y2 receptor (Homo sapiens, UniProt P49146); test: ^125I-PYY binding to membranes, cloned human Y2 receptor
T1 construct: expressed in transfected cells; host or cells: COS-7 (transient)
T1 sequence (P49146 1-381): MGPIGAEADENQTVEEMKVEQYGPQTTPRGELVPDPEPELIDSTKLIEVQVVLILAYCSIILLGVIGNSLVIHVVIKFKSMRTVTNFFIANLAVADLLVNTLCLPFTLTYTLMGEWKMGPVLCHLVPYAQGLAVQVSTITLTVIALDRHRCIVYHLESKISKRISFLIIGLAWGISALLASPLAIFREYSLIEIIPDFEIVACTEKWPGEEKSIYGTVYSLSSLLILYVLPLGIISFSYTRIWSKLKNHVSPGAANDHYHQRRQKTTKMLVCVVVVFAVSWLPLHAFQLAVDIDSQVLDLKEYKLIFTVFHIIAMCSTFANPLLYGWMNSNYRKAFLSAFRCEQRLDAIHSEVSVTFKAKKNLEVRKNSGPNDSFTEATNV

[3] = molecular target: T2, rat Y4 receptor (Rattus norvegicus, UniProt Q63447); test: ^125I-PYY binding to membranes, cloned rat Y4 receptor; conditions: BIBP 3226 at cloned rat Y-type receptors
T2 construct: expressed in transfected cells; host or cells: COS-7 (transient)

[4] = tested on: rat Y5 receptor; test: Radioimmunoassay of cAMP, 293 cells stably expressing rat Y5 receptor; assay type: cell-based; conditions: concentrations up to 1 μM
[5] = molecular target: T3, rat Y5 receptor (Rattus norvegicus, UniProt Q63634); test: Radioligand binding to membranes of cells expressing cloned rat Y5 receptor; conditions: BIBP 3226 at cloned rat Y-type receptors
T3 construct: expressed in transfected cells; host or cells: COS-7 (transient, DEAE-dextran)

[6] = molecular target: T4, rat Y2 receptor (Rattus norvegicus, UniProt Q9ERC0); test: ^125I-PYY binding to membranes, cloned rat Y2 receptor; set-up: expressed in transfected cells; host or cells: COS-7 (transient); conditions: BIBP 3226 at cloned rat Y-type receptors
[7] = molecular target: T4, rat Y2 receptor; test: Antagonism of NPY- or PP-induced activation of rat Y2 receptors; assay type: cell-based; conditions: concentrations up to 1 μM
[8] = tested on: canine Y5 receptor; test: Porcine ^125I-PYY binding to membranes of COS-7 cells transfected with canine Y5 receptor; conditions: COS-7 transient
[9] = molecular target: T5, human Y4 receptor (Homo sapiens, UniProt P50391); test: ^125I-PYY binding to membranes, cloned human Y4 receptor
T5 construct: expressed in transfected cells; host or cells: COS-7 (transient)

[10] = molecular target: T6, 5HT1F (Homo sapiens, UniProt P30939); test: Binding at cloned human 5HT1F receptor; conditions: read-out: pKi 5HT1F (converted)
T6 construct: expressed in transfected cells; host or cells: LM(tk-), line L-5-HT1F (ATCC 10957)
Description: (§1) The cell line for the 5HT1Dα receptor, designated as Ltk-8-30-84, was deposited on Apr. 17, 1990, and accorded ATCC Accession No. CRL 10421. The cell for the 5HT1Dβ receptor, designated as Ltk-11, was deposited on Apr. 17, 1990, and accorded ATCC Accession No. CRL 10422. The cell line for the 5HT1E receptor, designated 5 HT1E-7, was deposited on Nov. 6, 1991, and accorded ATCC Accession No. CRL 10913. The cell line for the ^5HT1F receptor, designated L-5-HT1F, was deposited on Dec. 27, 1991, and accorded ATCC Accession No. ATCC 10957. Membrane preparations comprising these receptors were prepared as described below, and suspended in 50 mM Tris-HCl buffer (pH 7.4 at 37° C.) containing 10 mM MgCl2, 0.2 mM EDTA, 10 μM pargyline, and 0.1% ascorbate. The binding of compounds was determined in competition binding assays by incubation for 30 minutes at 37° C. in the presence of 5 nM [^3H]serotonin.

[11] = molecular target: 5HT1E (Homo sapiens, UniProt P28566); test: Binding at cloned human 5HT1E receptor; conditions: read-out: pKi 5HT1E (converted)
Description: as §1

[12] = tested on: food intake; test: Food intake in food-deprived rats; assay type: in vivo, rat; conditions: Rattus norvegicus, ip, 2 h; 30 mg/kg i.p., after 24h food deprivation, two hours; read-out: Two-hour food intake of food-deprived rats, percentage of intake compared to control rats, Mean
[13] = molecular target: T7, human Y1 receptor (Homo sapiens, UniProt P25929); test: ^125I-PYY binding to membranes, cloned human Y1 receptor
T7 construct: expressed in transfected cells; host or cells: COS-7 (transient)
T7 sequence (P25929 1-384): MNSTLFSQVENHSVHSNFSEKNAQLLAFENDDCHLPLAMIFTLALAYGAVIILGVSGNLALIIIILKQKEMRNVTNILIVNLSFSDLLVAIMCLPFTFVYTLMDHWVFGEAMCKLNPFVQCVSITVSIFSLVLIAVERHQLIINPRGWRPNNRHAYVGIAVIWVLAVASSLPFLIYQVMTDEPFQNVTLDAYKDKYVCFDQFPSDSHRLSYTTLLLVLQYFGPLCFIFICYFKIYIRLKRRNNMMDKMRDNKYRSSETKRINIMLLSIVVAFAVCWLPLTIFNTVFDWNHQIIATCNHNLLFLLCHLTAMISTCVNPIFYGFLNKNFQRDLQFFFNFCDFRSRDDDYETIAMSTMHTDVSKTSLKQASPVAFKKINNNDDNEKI

[14] = molecular target: T8, human Y5 receptor (Homo sapiens, UniProt Q15761); test: Radioligand binding to membranes of cells expressing cloned human Y5 receptor; set-up: Ki Values, Human Y5; apparent Kd; pKd; Ki Values, Human Y5 (LM(tk-; The isolated clone (CG-19) turned out to contain a full length cDNA; The longest open reading frame encodes a 455 amino acid protein; conditions: Table 14; stably transfected LM(tk-) cells
T8 sequence (Q15761 1-445): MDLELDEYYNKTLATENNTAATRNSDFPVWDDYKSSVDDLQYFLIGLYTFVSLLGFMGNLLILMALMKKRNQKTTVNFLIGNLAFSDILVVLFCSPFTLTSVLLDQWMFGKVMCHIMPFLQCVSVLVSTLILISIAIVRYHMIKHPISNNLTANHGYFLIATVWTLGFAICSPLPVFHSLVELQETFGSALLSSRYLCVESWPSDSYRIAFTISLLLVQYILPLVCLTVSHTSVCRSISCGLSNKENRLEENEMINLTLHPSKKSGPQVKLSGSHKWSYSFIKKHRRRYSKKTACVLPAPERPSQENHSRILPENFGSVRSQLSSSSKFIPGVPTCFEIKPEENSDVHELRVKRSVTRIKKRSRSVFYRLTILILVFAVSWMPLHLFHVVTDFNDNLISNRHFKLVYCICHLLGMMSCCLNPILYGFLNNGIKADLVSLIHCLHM

[15] = molecular target: T8, human Y5 receptor; test: Radioimmunoassay of cAMP, cells stably expressing human Y5 receptor; assay type: cell-based; set-up: Ki Values, Human Y5; apparent Kd; pKd; Ki Values, Human Y5 (LM(tk-; The isolated clone (CG-19) turned out to contain a full length cDNA; The longest open reading frame encodes a 455 amino acid protein; conditions: block of NPY-induced inhibition of cAMP accumulation

T5 sequence (P50391 whole entry): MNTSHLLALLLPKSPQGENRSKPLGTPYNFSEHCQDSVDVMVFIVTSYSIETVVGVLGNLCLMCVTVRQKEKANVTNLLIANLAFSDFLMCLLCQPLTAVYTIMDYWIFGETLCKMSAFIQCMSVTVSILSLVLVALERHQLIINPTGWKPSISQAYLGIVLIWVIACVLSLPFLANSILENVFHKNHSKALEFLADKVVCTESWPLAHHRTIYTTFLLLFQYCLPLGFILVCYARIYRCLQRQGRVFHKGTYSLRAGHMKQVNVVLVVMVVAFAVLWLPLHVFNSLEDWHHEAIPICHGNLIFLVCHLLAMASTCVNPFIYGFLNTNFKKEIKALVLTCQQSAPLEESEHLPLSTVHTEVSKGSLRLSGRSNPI
T4 sequence (Q9ERC0 1-381): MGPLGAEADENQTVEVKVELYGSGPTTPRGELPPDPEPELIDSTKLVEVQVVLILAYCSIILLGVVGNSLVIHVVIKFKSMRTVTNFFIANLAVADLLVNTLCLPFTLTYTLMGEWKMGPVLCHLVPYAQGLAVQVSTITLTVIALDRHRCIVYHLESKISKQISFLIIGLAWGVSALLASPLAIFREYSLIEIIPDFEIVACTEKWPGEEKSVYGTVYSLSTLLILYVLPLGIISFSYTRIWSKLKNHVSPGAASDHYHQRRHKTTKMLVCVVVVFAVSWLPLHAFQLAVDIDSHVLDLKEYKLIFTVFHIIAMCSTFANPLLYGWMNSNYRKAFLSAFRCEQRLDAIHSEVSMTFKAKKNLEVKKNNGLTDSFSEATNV
T2 sequence (Q63447 whole entry): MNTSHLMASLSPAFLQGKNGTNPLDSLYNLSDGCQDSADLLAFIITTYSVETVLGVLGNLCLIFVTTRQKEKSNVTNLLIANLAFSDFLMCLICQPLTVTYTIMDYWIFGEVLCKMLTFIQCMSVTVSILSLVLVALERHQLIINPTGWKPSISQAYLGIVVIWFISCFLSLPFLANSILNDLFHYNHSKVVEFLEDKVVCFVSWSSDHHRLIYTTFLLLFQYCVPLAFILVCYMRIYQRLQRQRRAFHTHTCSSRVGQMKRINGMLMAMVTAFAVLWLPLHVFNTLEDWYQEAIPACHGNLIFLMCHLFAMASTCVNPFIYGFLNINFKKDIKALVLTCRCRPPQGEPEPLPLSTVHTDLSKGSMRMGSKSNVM
T6 sequence (P30939 whole entry): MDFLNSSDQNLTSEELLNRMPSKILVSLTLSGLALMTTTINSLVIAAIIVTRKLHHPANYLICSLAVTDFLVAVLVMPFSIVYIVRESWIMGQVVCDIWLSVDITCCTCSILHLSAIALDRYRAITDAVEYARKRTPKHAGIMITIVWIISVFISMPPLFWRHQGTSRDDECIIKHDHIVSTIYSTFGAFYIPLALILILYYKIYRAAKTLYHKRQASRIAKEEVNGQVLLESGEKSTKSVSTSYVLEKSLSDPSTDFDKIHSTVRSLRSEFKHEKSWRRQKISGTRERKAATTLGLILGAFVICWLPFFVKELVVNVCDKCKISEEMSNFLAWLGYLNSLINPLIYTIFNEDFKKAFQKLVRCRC
5HT1E, sequence (P28566 whole entry): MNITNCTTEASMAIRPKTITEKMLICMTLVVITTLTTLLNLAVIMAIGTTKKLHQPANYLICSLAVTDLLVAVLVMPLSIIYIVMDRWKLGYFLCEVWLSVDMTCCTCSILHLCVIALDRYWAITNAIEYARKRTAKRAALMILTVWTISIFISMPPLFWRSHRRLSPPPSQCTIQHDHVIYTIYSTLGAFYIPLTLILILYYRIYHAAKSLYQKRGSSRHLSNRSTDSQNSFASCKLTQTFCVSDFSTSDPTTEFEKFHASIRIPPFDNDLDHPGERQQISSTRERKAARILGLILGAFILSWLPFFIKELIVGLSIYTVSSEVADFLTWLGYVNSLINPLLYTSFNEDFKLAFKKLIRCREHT
T3 sequence (Q63634 whole entry): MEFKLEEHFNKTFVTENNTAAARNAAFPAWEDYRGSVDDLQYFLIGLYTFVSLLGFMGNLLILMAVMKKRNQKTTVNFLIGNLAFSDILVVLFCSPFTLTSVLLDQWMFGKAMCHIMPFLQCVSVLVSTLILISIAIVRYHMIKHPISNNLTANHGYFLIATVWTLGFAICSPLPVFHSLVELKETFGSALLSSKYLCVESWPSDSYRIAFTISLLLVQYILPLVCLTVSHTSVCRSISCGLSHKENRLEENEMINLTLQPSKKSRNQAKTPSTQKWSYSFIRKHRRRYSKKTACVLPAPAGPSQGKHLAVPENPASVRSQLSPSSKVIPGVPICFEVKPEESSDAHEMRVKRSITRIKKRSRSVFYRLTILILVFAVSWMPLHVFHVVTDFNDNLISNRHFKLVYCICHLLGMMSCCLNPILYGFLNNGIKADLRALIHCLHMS

Ki ([2]; BIBP 3226 at cloned human Y-type receptors, read-out: Ki, human Y2 receptor): 6.9 µM
Ki [3]: 0.42 µM
Ki [5]: 25 µM
Ki [6]: 66 µM
antagonism of NPY- or PP-induced activation of rat Y2 receptors [7]: no evidence for antagonism
Ki ([9]; BIBP 3226 at cloned human Y-type receptors, read-out: Ki, human Y4 receptor): 8 µM
Structure (SMILES): NC(N)=NCCC[C@@H](NC(=O)C(c1ccccc1)c1ccccc1)C(=O)NCc1ccc(O)cc1 [BIBP 3226]
Ki [1]: 49 µM
antagonism of NPY- or PP-induced activation of rat Y5 receptors [4]: no evidence for antagonism
Ki [8]: 17 µM

Structure (SMILES): O=S(=O)(NC[C@H]1CC[C@H](CNC(CO)Cc2ccc(Cl)cc2)CC1)c1cccc2ccccc12 (stereo partly drawn) [Compound 25, Naphthalene-1-sulfonic Acid trans-(4-{[2-(4-Chlorophenyl)-1-hydroxymethyl-ethylamino]-methyl}-cyclohexylmethyl)-amide]
Ki [10]: ≥ 5.01 µM
Ki ([2]; read-out: Binding Affinity Ki vs. ^125I-PYY, Human Receptor Y2, Table 14, stably transfected 293 cells (compound 1 also COS-7)): 0.851 µM
Ki [11]: ≥ 5.01 µM
Ki ([9]; read-out: Binding Affinity Ki vs. ^125I-PYY, Human Receptor Y4, Table 14, stably transfected LM(tk-) cells): 13.1 µM
response vs control in vivo at 30 mg/kg [12]: 32%

Ki [2]: > 75 µM
Ki [13]: > 100 µM
Ki [14]: 19 µM
Y5 receptor antagonist activity [15]: Y5 receptor antagonist
Ki ([9]; Table 14, stably transfected LM(tk-) cells): > 100 µM
Structure (SMILES): NCC(Cc1ccccc1)Nc1cccc2ccccc12 (stereo not shown) [Compound 28]
